Source: PubChem BioAssay (NCI)
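Assay format: 96-well plates, 48-hour exposure. TGI marks complete inhibition of growth.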 Where a SMILES comes first, the peptide text is derived from it. [ ]: non-standard residue; d: D form. The star is where a group is joined. Bn2Val = CC(C)[C@@H](C(=O)*)N(Cc1ccccc1)Cc1ccccc1; NMeV = CN[C@H](C(=O)O)C(C)C; X29 = COc1ccc(CN*)c(OC)c1; dNMeA = CN[C@H](C)C(=O)O

How the values were obtained:
Test in all cases: NCI tumour cell line growth inhibition, 48 h
[1] = tested on: HT29 colon
[2] = tested on: LOX IMVI melanoma
[3] = tested on: TK-10 renal
[4] = tested on: SN12C renal
[5] = tested on: RXF 393 renal
[6] = tested on: M14 melanoma
[7] = tested on: SNB-19 CNS
[8] = tested on: MDA-N
[9] = tested on: IGROV1 ovarian
[10] = tested on: SK-OV-3 ovarian
[11] = tested on: HOP-62 NSCLC

Compound | TGI [1] [µM] | TGI [2] [µM] | TGI [3] [µM] | TGI [4] [µM] | TGI [5] [µM] | TGI [6] [µM] | TGI [7] [µM] | TGI [8] [µM] | TGI [9] [µM] | TGI [10] [µM] | TGI [11] [µM]
Cc1nnc2n(c1=O)CCN2C | > 100 | > 100 | > 100 | > 100 | > 100 | > 100 | > 100 | > 100 | > 100 | > 100 | > 100
Cc1ccc(-n2cc(-c3ccc(Cl)cc3)c3c(NN)ncnc32)cc1 | 19 | 19.7 | > 100 | 13.9 | 7.31 | 3.75 | 40.9 | 63.2 | 11.2 | 44.2 | 22.6
CC12CCCCC1=[N+]([O-])C(C)(C)N2O (configuration not stated) | > 100 | > 100 | > 100 | > 100 | > 100 | > 100 | > 100 | > 100 | > 100 | > 100 | > 100
COC(=O)c1c(CC(Cc2ccc3c(c2)CCCC3)C(=O)OC)ccc2c1CCCC2 (configuration not stated) | > 100 | > 100 | > 100 | > 100 | > 100 | > 100 | > 100 | > 100 | > 100 | > 100 | > 100
Cc1nc2n(c1/C=C1/C(=O)Nc3ccccc31)CCS2 | > 100 | > 100 | > 100 | > 100 | 71.3 | > 100 | > 100 | 44.4 | > 100 | > 100 | > 100
COCC1OC(S(=O)(=O)c2ccccc2)C(O)C(OC)C1OC (configuration not stated) | > 100 | > 100 | > 100 | > 100 | > 100 | > 100 | > 100 | > 100 | > 100 | > 100 | > 100
CC(C)(C)CC(C)(C)NC(=S)NO | > 100 | > 100 | > 100 | > 100 | > 100 | > 100 | > 100 | > 100 | > 100 | > 100 | > 100
C=C[C@@]1(O)CCCC[C@@H]1CC(Sc1ccccc1)Sc1ccccc1 | 36.9 | 34.5 | 30.9 | 34.3 | 30.5 | 37 | 35.6 | 44.8 | 29.2 | 31.6 | 29.5
Oc1ccccc1C1C=C(c2ccccc2)NC(N2CCCCC2)=C1c1nc2ccccc2[nH]1 (configuration not stated) | 29.3 | 31.2 | 34.3 | 29.7 | 24.7 | 25.9 | 28.7 | 26.6 | 27.8 | 26.4 | 27.4
CO[C@H]1O[C@@H]2CO[C@@H](c3ccccc3)O[C@H]2[C@@H]2C/C=C\CCC[C@@]12O | 40.3 | 32.4 | > 100 | 32.5 | 33.2 | 45.9 | > 100 | 60.8 | 96.2 | 99.7 | 35.5
NC(Cc1c[nH]c2cc([N+](=O)[O-])ccc12)C(=O)O (configuration not stated) | > 100 | > 100 | > 100 | > 100 | > 100 | > 100 | > 100 | > 100 | > 100 | > 100 | > 100
COc1ccc(CNC(=O)[C@@H]2CCCN2C(=O)[C@@H](C)N(C)C(=O)[C@H](C(C)C)N(C)C(=O)[C@@H](NC(=O)[C@H](C(C)C)N(Cc2ccccc2)Cc2ccccc2)C(C)C)c(OC)c1 (Bn2Val-V[NMeV][dNMeA]P-X29) | 3.26 | 7.13 | 22.4 | 3.25 | 3.94 | 10.5 | 22.8 | 5.78 | 12.6 | 63.2 | 21.1
CN1CN(c2ccccc2)C2(CCN(CCCCCCF)CC2)C1=O | > 100 | > 100 | > 100 | > 100 | > 100 | > 100 | > 100 | > 100 | > 100 | > 100 | 93.3
OCC(CCc1ccccc1I)C1=CCC2(CC1)OCCO2 (configuration not stated) | 41.6 | 29.1 | 50.7 |  | 34.9 | 35.3 | 37.7 | 36.5 | 39.7 | > 100 | 37.4
CN1N=C(c2ccncc2)OC1c1cccc(C(F)(F)F)c1 (configuration not stated) | > 100 | > 100 | > 100 | > 100 | > 100 | > 100 | > 100 | > 100 | > 100 | > 100 | > 100
Cc1cccc2nc3c(=O)[nH]c(=O)nc-3n(C)c12 | > 100 | > 100 | > 100 | > 100 | > 100 | > 100 | > 100 | > 100 | > 100 | > 100 | > 100
CC(C)(O)C1CC[C@]2(C)[C@H]3CC[C@@H]4[C@@]5(C)CCCC(C)(C)[C@@H]5CC[C@@]4(C)[C@]3(C)CC[C@@H]12 (some centres not stated) | > 100 | > 100 | > 100 | > 100 | > 100 | > 100 | > 100 | > 100 | > 100 | > 100 | > 100
COC(=O)[C@@](C)(COC(=O)C(C)(C)C)NC(=O)OC(C)(C)C | > 100 | > 100 | > 100 | > 100 | > 100 | > 100 | > 100 | > 100 | > 100 | > 100 | > 100
O=C1C=C2CCC[C@H]3OC(=O)C[C@@]23CC1 | > 100 | > 100 | > 100 | > 100 | > 100 | > 100 | > 100 | > 100 | > 100 | > 100 | > 100
[O-][n+]1c(CN2CCCCC2)nc2cccc3c2c1-c1ccccc1-3 | 51.8 | 46.8 | 67.5 | 46.1 | 31.1 | 31.3 | 89.4 | 58.4 | > 100 | 92.5 | 48.6
CS(=O)(=O)c1nc(-c2cc3c(c(S(C)(=O)=O)n2)CCC3)cc2c1CCCC2 | > 100 | 49.8 | > 100 | > 100 | 40.5 | > 100 | > 100 | > 100 | 34.8 | 77.7 | 78.6
Cc1ccc(-c2cc(O)c3nc4ccccc4n3c2)cc1 | > 100 | > 100 | > 100 | > 100 | > 100 | > 100 | > 100 | > 100 | > 100 | > 100 | > 100
COc1ccccc1N=Nc1c(O)c(S(=O)(=O)O)cc2cc(S(=O)(=O)O)ccc12 | > 100 | > 100 | > 100 | > 100 | > 100 | > 100 | > 100 | > 100 | > 100 | > 100 | > 100
COC(=O)C(=O)C(C(=O)C(=O)Nc1cccc([N+](=O)[O-])c1)c1nc2ccc(Cl)cc2[nH]c1=O (configuration not stated) | > 100 | > 100 | > 100 | > 100 | > 100 | > 100 | > 100 | > 100 | > 100 | > 100 | > 100
Cc1ccc(S(=O)(=O)[C@@H](Cl)[C@H]2N=C(Cl)NN=C2c2ccccc2)cc1 | > 100 | 51.8 | > 100 | 54 | 37.3 | 42.6 | > 100 | 74.4 | 55.4 | > 100 | 42.7
COC(=O)CCc1c(Cc2ccc[nH]2)[nH]c(C(=O)OCc2ccccc2)c1C | 38.9 | 35.1 | 76.2 | 35.6 | 49 | 30.4 | 85.8 | 34.4 | 31.4 | > 100 | 39.9
CS[C@]12[C@@H]3C(=O)N(C)C(=O)[C@@H]3[C@](C)(C(=O)N1C)C(=O)N2c1ccccc1 | > 100 | > 100 | > 100 | > 100 | > 100 | > 100 | > 100 | > 100 | > 100 | > 100 | > 100
O=C(O)CC[P+](c1ccccc1)(c1ccccc1)c1ccccc1 | > 100 | > 100 | > 100 | 54.7 | > 100 | > 100 | > 100 | > 100 | > 100 | > 100 | > 100
